Data set [1] relates to drug-naïve and drug-resistant prostate cancer cell lines (six different cell lines). In words: MTT cell viability (antiproliferative) assay, GI50. The data set is classed as cell-based. As to conditions: Homo sapiens, 168 h, read-out: GI50 (concentration required to inhibit cell growth by 50%), range over the six cell lines tested, 7 days. From the text: The new NGGAs (VNPP414 and VNPP433-3β) were identified from in vitro anti-proliferative activities of our in-house compounds assessed in several PC cell lines, including LNCaP, C4-2B, and CWR22Rv1 (22Rv1). […] It was recently reported that treatment of AR-expressing bladder cancer cell lines with enzalutamide induced up-regulation of tumor suppressor, p53, p21 and PTEN, and down-regulation of several oncogenic genes, such as c-myc, cyclin D1, and cyclin E [38]. […] We note that these cell-cycle studies were conducted in LNCaP cells. Inhibition of colony formations (clonogenicity assays) was also assessed by treating the parental CWR-R1 cells and two drug-resistant counterparts with Gal, VNPP433-3β, or ENZ.
(A) Comparative GI50 values of Gal, NGGAs, and enzalutamide (ENZ) in drug-naïve-/-resistant prostate cancer cells. (B) Gal and NGGAs induce G1 cell cycle arrest in LNCaP cells. (C) VNPP414 and VNPP433-3β deplete the cell cycle regulator, cyclin D1, and upregulate p21; “+” indicates specific treatments. (D) Gal cause dose-dependent depletion of cyclin D1. […] (F) Quantification of colony formation units (CFU) in drug-naive/resistant cells. Colony assays were repeated three times and colonies counted in four quadrants of the wells. […]
MTT assays were performed as described in our previous publications. […] Data was analyzed with GraphPad prism 4 software.

Data set [2] can be described thus: Host toxicity monitoring in the CWR22Rv1 xenograft study (body weight, health status). Format: in vivo, male NOD SCID mice. How it is done: Following the in vitro studies and determination of the PK parameters, we then investigated the relative efficacy. Gal and the NGGAs in vivo using difficult-to-treat castration-resistant CWR22Rv1 xenografts. Given the enhanced IP and PO PK parameters of VNPP414 and VNPP433-3β over Gal, we decided to use lower doses of the new analogs compared to the previous Gal doses (200 mg/kg, IP/PO). Gal (200 mg/kg) served as positive control, while ENZ (25 mg/kg) administered PO was used as negative control. Male NOD SCID mice bearing CWR22Rv1 tumors were treated with vehicle, ENZ, Gal, VNPP414, and VNPP433-3β for 16 days as described in the Methods and Materials Section. […] In contrast, Gal and the NGGAs caused statistically significant tumor growth inhibition (TGI). […] It is notable that VNPP433-3β (at 7.5- and 15-fold lower molar doses) and VNPP414 (at 4-fold lower molar dose) are more efficacious than Gal. In general, no host toxicities were observed, as monitored by changes in animal body weight (Figure 7C). […]

SMILES strings stand for the structures.

This is an account of results in article PMC6895912 (Cancers, 2019).

On to `C[C@]12CC[C@H](n3ccnc3)CC1=CCC1C2CC[C@]2(C)C(n3cnc4ccccc43)=CCC12` (stereo partly drawn) [VNPP433-3β], for which, in data set [1], the GI50 lay in the range of 1.12 to 2.54 µM. Further, the mortality entry in data set [2] (30 mg/kg PO once daily group, 5 mice) is recorded as “one mouse died on day 16”. In data set [2] (CWR22Rv1 tumor-bearing mice, PO, 16 days), the “host toxicity, monitored by changes in animal body weight” value is on record as “no apparent host toxicity”.
